Assay results taken from patent US20240382495A1, “COMBINATIONS OF COPANLISIB WITH ANTI-PD-1 ANTIBODY” (BAYER PHARMA AKTIENGESELLSCHAFT, priority 2023, published 2024).
Structures can show the parent of a compound that is named as a salt.

Assays:
[1] = test system: regulatory T cells (Treg); assay: Analysis of Treg and CD8+ T cells in tumor, spleen and thymus of A20 model; type: in vivo, mouse
Method: Sampling procedures: organ and tumor tissues were quickly removed and weighted 3h post the final dose for FACS, IHC (FFPE), and RNA/pretein expression analysis.
The anti-tumor activity of Compound A and Compound B was assessed firstly in an immune-checkpoint blocker resistant DLBCL syngeneic A20 xenograft mouse model as single agent and in combination. A20 cells were inoculated subcutaneously at the right flank of female BALB/c mice for tumor development. The treatment was started when the average tumor size reached about 116 mm^3. Mice were allocated randomly into experimental groups according to their tumor sizes and being treated from day 12 after tumor cell inoculation. Cpd A was dosed at 14 mg/kg and Cpd B at 200 μg/mouse intravenously with the schedule indicated in FIG. 1 A. Treatment groups were: control antibody (ctrl Ab), vehicle control (vehicle), compound A monotherapy (Cpd. A), Cpd. B monotherapy, 3 combination groups with different dosing schedules. Body weights and tumor size were measured three times per week. Tumor growth curve (FIG. 1B), tumor weight at the end of treatment (FIG. 1C) and tumor response (FIG. 1D) were used as anti-tumor activity endpoints. The tolerability was assessed by body weight change. […]

CT26 colorectal cancer = assay: Anti-tumor efficacy in syngeneic CT26 colorectal cancer mouse model; type: in vivo; details: CT26 (KRASmut, non-MSIhigh) model, monotherapy
Method: (§1) Experimental Methods A20 diffuse large B cell lymphoma and CT26 colorectal cancer cells were maintained in vitro in cell cultural medium supplemented with serum (according to the instructions for each corresponding cell lines) at 37° C. in an atmosphere of 5% CO2 in air. The tumor cells were routinely subcultured twice weekly. The cells in an exponential growth phase were harvested and counted for tumor inoculation. To investigate anti-tumor efficacy and mechanisms of action in vivo, each mouse was inoculated subcutaneously at the right lower flank region with tumor cells (1×10^5-2×10^6 depending on the cell lines) in 0.1 ml of PBS with or without metrigel for tumor development. Before commencement of treatment, all animals were weighed and the tumor volumes were measured using a caliper. […]
(§2) Tumor volumes were measured 2-3 times weekly in two dimensions using a caliper, and the volume was expressed in mm^3 using the formula: V=0.5 a x b2 where a and b are the long and short diameters of the tumor, respectively. Tumor weight was measured at study termination. […]
Therefore, the anti-tumor activity of Compound A and Compound B was assessed in the mouse syngeneic CT26 (KRASmut, non-MSIhig^h) colorectal cancer xenograft model as single agent and in combination. […]

[2] = test system: A20 diffuse large B cell lymphoma; assay: Anti-tumor efficacy in DLBCL syngeneic A20 mouse model; type: in vivo; details: monotherapy; Cpd A 14 mg/kg, Cpd B 200 μg/mouse, intravenously; vs vehicle control group
Method: as §1, §2
The anti-tumor activity of Compound A and Compound B was assessed firstly in an immune-checkpoint blocker resistant DLBCL syngeneic A20 xenograft mouse model as single agent and in combination. […] Body weights and tumor size were measured three times per week. […] The tolerability was assessed by body weight change. […]

SMILES: COc1c(OCCCN2CCOCC2)ccc2c1N=C(NC(=O)c1cnc(N)nc1)N1CCN=C21 [Cpd A, 2-amino-N-[7-methoxy-8-(3-morpholin-4-ylpropoxy)-2,3-dihydroimid-azo[1,2-c]quinazolin-5-yl]pyrimidine-5-carboxamide dihydrochloride]
- effect on Treg in thymus and spleen ([1]; A20 model, thymus and spleen): minimal or no effects
- effect on Treg population in tumors ([1]; A20 tumors, Treg among CD4+ T cells): specifically reduce the Treg population in tumors
- TGI (CT26 colorectal cancer): 71%
- relative tumor growth inhibition (TGI %) [2]: 78%
